Legend:
Assay type in all cases: cell-based, Pseudomonas putida
[1] = tested on: parental strain KH146-2; assay: Antibiotic growth suppression on LB agar
Description: (§1) Spontaneous streptomycin-resistant (Str), gentamicin-resistant (Gen) or rifampicin-resistant (Rif) mutants were obtained from colonies that grew within 3 days after wild-type cells were spread on LB agar containing various concentrations of antibiotic.
We first isolated a number of spontaneous streptomycin-resistant (Str), gentamicin-resistant (Gen) and rifampicin-resistant (Rif) mutants of P. putida KH146-2. These mutants appeared at a frequency of 10^−5–10^−6 when KH146-2 cells were spread on LB agar containing various amounts of antibiotics. […] Forty mutants resistant to each antibiotic were randomly selected and examined for tolerance to 4-hydroxybenzoic acid (4HBA). 4HBA-tolerant strains, which could grow in the presence of 1% 4HBA, were detected among these antibiotic resistant mutants at a high frequency of 3 to 15% (Table 1). The highest frequency (15%) was detected in the mutants selected with 1000 μg ml^−1 of streptomycin. These 4HBA-tolerant isolates all grew as well as the parent strain on LB agar.

[2] = tested on: strain no. 3 carrying plasmid pYI433 containing the wild-type rpsL gene; assay: Complementation experiment, streptomycin resistance; settings: strain no. 3 carrying pYI433; about the same as wild-type levels
Description: To clone the rpsL gene, a 0.9-kb DNA region covering whole rpsL was amplified from the chromosomal DNA of P. putida KH146-2 using KDO DNA polymerase (Toyobo Biochemicals, Osaka). Oligonucleotide primers were designed according to the rpoC-rpsL-rpsG sequence of P. putida KT2440 (www.tigr.org); 5′-[…]-3′ (SEQ ID NO:7—nucleotides [nt]−368 to −341 upstream of rpsL) and 5′-[…]-3′ (SEQ ID NO:8—complementary to nt 107 to 135 downstream of rpsL). The amplified DNA fragments were cloned into plasmid pUC118 (Vieira and Messing, (1987) Methods Enzymol 153: 3–11) to confirm the sequence, then excised from the plasmids as a BamHI-SphI fragment using the restriction sites in the multi-cloning sequence of the vector and inserted between the BglII and SphI sites of the E. coli-Pseudomonas shuttle vector pNIT6010 carrying tet^R, a derivative of pNIT6011 (Nishijyo et al. (2001) Mol Microbiol 40:917–931). The resultant plasmid pYI433, as well as vector control pNIT6010, was introduced into the Str mutant no. 3 (str-1) by conjugation using E. coli HB101/pRK2013 as the helper (Comai et al. (1983) Plasmid 10:21–30). Fifty μg ml^−1 of tetracycline was used for selection of transformants.
[…]

[3] = tested on: the eight Str mutants with increased tolerance to 4HBA; assay: Resistance level to streptomycin, Str mutants as a group
Description: as §1
Streptomycin resistance frequently results from a mutation in the rpsL gene for the ribosomal protein S12 (Hosoya et al., ((1998) Antimirob Agents Chemother 42:204–2047); Inaoka et al., ((2001) J Bacteriol 183:4958–4963); Shima et al., ((1996) J Bacterial 178:7276–7284)). Rifampicin resistance results from a mutation in the rpoB gene (β-subunit of RNA polymerase) (Heep et al., ((1999) Antimicrob Agents Chemother 43:1497–1499); Jin and Gross, ((1988) J Mol Biol 202:45–58); Wichelhaus et al., ((1999) Antimicrob Agents Chemother 43:2813–2816); Hu et al., ((2002) J Bacteriol 184: 3984–3991)). We therefore sequenced and compared the rpsL gene and rpoB gene from the mutants to the wild-type strain.

[4] = tested on: P. putida strain no. 10 (str-1); assay: Resistance level to antibiotic on LB agar; settings: 1 days on LB agar
Description: as §1

[5] = tested on: P. putida strain no. 5 (str-1); assay: Resistance level to antibiotic on LB agar; settings: 1 days on LB agar
Description: as §1

[6] = tested on: P. putida strain no. 8 (str-1); assay: Resistance level to antibiotic on LB agar; settings: 1 days on LB agar
Description: as §1

[7] = tested on: P. putida strain no. 4 (str-1); assay: Resistance level to antibiotic on LB agar; settings: 1 days on LB agar
Description: as §1

[8] = tested on: P. putida strain no. 2 (str-1); assay: Resistance level to antibiotic on LB agar; settings: 1 days on LB agar
Description: as §1

[9] = tested on: P. putida strain no. 9 (str-2); assay: Resistance level to antibiotic on LB agar; settings: 1 days on LB agar
Description: as §1

[10] = tested on: P. putida strain no. 3 (str-1); assay: Resistance level to antibiotic on LB agar; settings: 1 days on LB agar
Description: as §1

[11] = tested on: P. putida strain no. 6 (str-1); assay: Resistance level to antibiotic on LB agar; settings: 1 days on LB agar
Description: as §1

Structure (SMILES): [H]/N=C(/N)N[C@H]1[C@H](O)[C@@H](O)[C@H](O[C@@H]2O[C@@H](C)[C@](O)(C=O)[C@H]2O[C@@H]2O[C@@H](CO)[C@H](O)[C@@H](O)[C@@H]2NC)[C@@H](N/C(N)=N\[H])[C@@H]1O [streptomycin]
- Concentration completely suppressing growth [1]: 100 µg/mL
- levels of Str (streptomycin resistance) [2]: 100 to 200 µg/mL
- level of resistance to streptomycin [3]: > 100 mg/mL
- resistance compared to the wild-type strain [3]: > 1000 fold
- Resistance level to antibiotic [4]: >100,000 (STR) μg ml^−1
- Resistance level to antibiotic [5]: >100,000 (STR) μg ml^−1
- Resistance level to antibiotic [6]: >100,000 (STR) μg ml^−1
- Resistance level to antibiotic [7]: >100,000 (STR) μg ml^−1
- Resistance level to antibiotic [8]: >100,000 (STR) μg ml^−1
- Resistance level to antibiotic [9]: >100,000 (STR) μg ml^−1
- Resistance level to antibiotic [10]: >100,000 (STR) μg ml^−1
- Resistance level to antibiotic [11]: >100,000 (STR) μg ml^−1

From patent US7070983B2, “Mutant Pseudomonas putida strains and methods of use thereof” (priority 2003, dated 2006)
